Activity and LD50 data for 1 compound are collected here from ChEMBL document CHEMBL1149735, “Stereoselective synthesis and antimalarial activity of alpha-artelinic acid from artemisinin” (J Nat Prod, 1992).

Data set [1] has as its system Plasmodium knowlesi. The data set can be described thus: Antimalarial activity as parasite elimination after 24 hrs against Plasmodium knowlesi infected Rhesus monkey at 30 mg/kg intravenous dose. Type of data set: functional, organism-based. Details: dose 30 mg/kg.
For data set [2], the system named is Plasmodium knowlesi. The data set is described as follows: Antimalarial activity as cures at day 50 in Plasmodium knowlesi infected Rhesus monkey assessed at 15 mg/kg intravenous dose for 3 days. The format is functional, organism-based. Also on record: dose 15 mg/kg.
The nature of data set [3]: Toxicity in Swiss mouse. Type of data set: organism-based. The following applies: in vivo.
Data set [4] concerns Plasmodium knowlesi. The data set is described as follows: Antimalarial activity as parasite elimination up to day 50 against Plasmodium knowlesi infected Rhesus monkey at 30 mg/kg intravenous dose over 3 days. Type of data set: functional, organism-based. Also on record: dose 30 mg/kg.

SMILES strings stand for the structures. The source made the active and inactive calls. The calls are words filed in the database; no cut-off is given here.

On to `C[C@@H]1[C@H](OCc2ccc(C(=O)O)cc2)O[C@@H]2O[C@@]3(C)CC[C@@H]4[C@@H](C)CC[C@@H]1[C@]24OO3` [ARTELINIC ACID], for which the result with Plasmodium knowlesi [1] and in the data set on Plasmodium knowlesi [4] was Active. Also, in the data set on Plasmodium knowlesi [2], the result was inactive. Besides, in data set [3], the LD50 came to 1000 mg/kg.
